Test results reported in patent US10766914B2, “DNA alkylating agents” (OBI PHARMA, INC., priority 2015, dated 2020).

Key:
AKR1C3 = target: T1, AKR1C3 (Homo sapiens, UniProt P42330); test: Activation by the aldoketo reductase AKR1C3 (% remaining, LC/MS/MS); assay type: biochemical; details: for % Remaining: 5 μM, 25 μg/mL AKR1C3, 2 mM NADPH, 37° C.
T1 sequence (P42330 1-323): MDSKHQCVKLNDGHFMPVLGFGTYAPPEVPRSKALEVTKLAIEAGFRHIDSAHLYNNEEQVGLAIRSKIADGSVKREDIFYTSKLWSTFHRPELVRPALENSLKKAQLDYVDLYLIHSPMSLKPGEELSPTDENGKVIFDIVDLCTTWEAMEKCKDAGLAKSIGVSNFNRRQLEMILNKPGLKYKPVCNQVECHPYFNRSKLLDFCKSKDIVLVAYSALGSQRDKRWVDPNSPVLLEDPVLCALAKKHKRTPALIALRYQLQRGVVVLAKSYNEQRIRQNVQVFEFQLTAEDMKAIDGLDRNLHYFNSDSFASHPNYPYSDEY
Method: Recombinant human AKR1C3 was diluted to 25 μg/mL in phosphate buffered saline (PBS), pH 7.4 (37° C.), containing 2 mM NADPH. TH2870 or progesterone (positive control) in 30% methanol/70% water was added to the reaction mixture at a final concentration of 5 μM and incubated at 37° C. for 120 minutes. At various times up to 120 min, 50 μL of the reaction mixture was taken and 200 μL acetonitrile containing propranolol as internal standard was added, vortex-mixed and centrifuged for 10 min. The resulting supernatant (5 μL) was injected into a LC/MS/MS for quantitation of % remaining TH2870 and progesterone. The compounds were tested in duplicate.

H460 cells = test: Proliferation assay in H460 cells (2 hr exposure, AlamarBlue); assay type: cell-based, human; details: Homo sapiens, NCI-H460, 2 hrs exposure, wash, 70 hrs growth, read-out: IC 50 in proliferation assay in H460 cells
Method: In vitro proliferation data on the H460 […] human tumor cell line is reported above in the compound table.
Specifically, exponentially growing cells were seeded at a density of 4×10^3 cells per well in a 96 well plate and incubated at 37° C. in 5% CO2, 95% air and 100% relative humidity for 24 hours prior to addition of test compounds. Compounds were solubilized in 100% DMSO at 200 times the desired final test concentration. At the time of drug addition, compounds were further diluted to 4 times the desired final concentration with complete medium. Aliquots of 50 μl of compound at specified concentrations were added to microtiter wells already containing 150 μl of medium, resulting in the final drug concentration reported. After drug addition, the plates were incubated for an additional 2 hours at 37° C., 5% CO2, 95% air, and 100% relative humidity, then the drug was washed off and fresh medium was added and the plates were incubated for addition 70 hrs at 37° C., 5% CO2, 95% air and 100% relative humidity. At the end of this incubation, the viable cells were quantified using the AlamarBlue assay. The drug concentration resulting in growth inhibition of 50% (IC50) was calculated using Prism software (Irvine, Calif.), and the results were listed in the table.

[1] = Example 4-D body weight change and lethal toxicity, A549 xenograft study; assay type: in vivo, female nude mice (nu/nu)
Method: (§1) Cells were mixed with Matrigel (50% with exception for 30% in the H460) and 0.2 ml per mouse were subcutaneously implanted to the flank area of the animals. When tumor size reached 100-150 250 mm3, mice were randomized into experimental or vehicle groups with 10 mice/group and treatment was started (Day 1). The tested compounds were formulated in 5% DMSO in D5W. The regimens employed in the examples include IP, QD×5/wk (5 days on, 2 days off) as one cycle, for a total of 2 cycles; IP, once; IP, weekly for total 3 weeks; and IV, weekly for 3 weeks. Tumor growth and body weight were measured twice a week. Tumor volume was calculated as (length×width2)/2. Drug efficacy was assessed as Tumor Growth Inhibition (TGI) and Tumor Growth Delay (TGD). TGI was defined as (1−ΔT/ΔC)×100, where ΔT/ΔC presented the ratio of the change in mean (or median, if variation within the group was relatively large) tumor volume of the treated group and of the control group. TGD was calculated as the extra days for the treated tumor to reach 500 mm3 or 1000 mm3 as compared to the control group. Animals were culled when individual tumor size reached over 2000 mm3 or mean tumor volume exceeded 1000 mm3 in the group. Data are expressed as the mean±SEM. One-way analysis of variance with Dunnett post comparison test (GraphPad Prism 4) or two-tailed student's t-test were used for analysis. A P level <0.05 was considered statistically significant.
(§2) The compounds were tested in another A549 model. The compounds were dosed as follows. Daily IP dosing: 5 doses then 2 days off then 5 more doses starting at 100 mm^3 tumors on day 1 (10 animals per group average tumor volume). The antitumor effects and the safety of administration are graphically illustrated below.

A549 NSCLC xenograft = test: Example 4-D antitumor efficacy, ectopic A549 NSCLC xenograft model; assay type: in vivo, female nude mice (nu/nu)
Source text: (§3) Specific pathogen-free homozygous female nude mice (nu/nu, Charles River Laboratories) were used. Mice were given food and water ad libitum and housed in microisolator cages. Four to six week old animals were identified by microchips (Locus Technology, Manchester, Md., USA) at the time of the experiments. All animal studies were approved by the Institutional Animal Care and Use Committee at Threshold Pharmaceuticals, Inc.
(§4) All cell lines were from the American Type Culture Collection (ATCC, Rockville, Md., USA).
as §1, §2

[2] = Pharmacokinetics in CD-1 mice following a single intraperitoneal dose (parent and TH2660); details: mouse, in vivo, ip, parent compound
Method: The pharmacokinetics of TH2873, TH2883, TH2888, TH2890, TH2901 and TH2926 were determined in CD-1 mice following a single intraperitoneal dose.
The pharmacokinetics of TH2660, the active metabolite, following a single intraperitoneal dose of TH2873, TH2883, TH2888, TH2890, TH2901 and TH2926 are shown below.

[3] = Example 4-C body weight change, A375 xenograft study; assay type: in vivo, female nude mice (nu/nu); details: 10 mpk, qd × 5 × 2, ip
Method: as §1
his study employed an A375 melanoma human tumor xenograft model and various compounds provided herein were compared to thiotepa and the approved anti melanoma drug, nab-Paclitaxel. The antitumor effects and the safety of administration are graphically illustrated below.

[4] = tested on: A375 melanoma human tumor xenograft; test: Example 4-C antitumor efficacy, ectopic A375 melanoma xenograft model; assay type: in vivo, female nude mice (nu/nu); details: qd × 5 × 2, ip; for TGD 500 / TGD 1000: 10 mpk; for inhibition in vivo at 10 mg/kg: Mus musculus, A-375, 10 mpk, read-out: TGI
Source text: as §3, §4, §1
his study employed an A375 melanoma human tumor xenograft model and various compounds provided herein were compared to thiotepa and the approved anti melanoma drug, nab-Paclitaxel.

| Compound | IC50 (H460 cells) [nM] | AUC [2] [ng·h/mL] | Cmax [2] [ng/mL] | Tmax [2] [min] | half-life [2] [min] | Max. BW loss % [3] [%] | TGD 500 [4] [days] | TGD 1000 [4] [days] | inhibition in vivo at 10 mg/kg [4] [%] | other results |
| --- | --- | --- | --- | --- | --- | --- | --- | --- | --- | --- |
| CC(=O)[C@H]1CC[C@H]2[C@@H]3CCC4=CC(=O)CC[C@]4(C)[C@H]3CC[C@]12C [Progesterone, progesterone, reference compound] |  |  |  |  |  |  |  |  |  | % Remaining (AKR1C3; 0 min): 100%; % Remaining (AKR1C3; 15 min): 70.8%; % Remaining (AKR1C3; 30 min): 49.2%; % Remaining (AKR1C3; 60 min): 20.1%; % Remaining (AKR1C3; 90 min): 10.6%; % Remaining (AKR1C3; 120 min): 6.40%; disappearance in the presence of AKR1C3 (AKR1C3; in words): reduced slowly |
| O=[N+]([O-])c1ccc(COP(=O)(N2CC2)N2CC2)cc1Oc1ccc(-c2ccccc2)cc1 [Compound 2958] | 2 |  |  |  |  |  |  |  |  | Max. BW loss % ([1]; 5 mg/kg IP QD × 5/wk × 2 wks): 2.1%; Lethal Tox ([1]; 5 mg/kg IP QD × 5/wk × 2 wks, 10 animals per group): 0; TGD 500 (A549 NSCLC xenograft; 5 mg/kg IP QD × 5/wk × 2 wks): 44 days; TGI (A549 NSCLC xenograft; 5 mg/kg IP QD × 5/wk × 2 wks): 77.9% |
| Cc1nc2ccc(Oc3cc(COP(=O)(N4CC4)N4CC4)ccc3[N+](=O)[O-])cc2s1 [Compound 2931] | 1 |  |  |  |  |  |  |  |  | Max. BW loss % ([1]; 5 mg/kg IP QD × 5): 25.0%; Lethal Tox ([1]; 5 mg/kg IP QD × 5, 10 animals per group): 10 |
| O=[N+]([O-])c1ccc(COP(=O)(N2CC2)N2CC2)cc1Oc1ccc2c(c1)OCO2 [Compound 2888] | 3 | 1600 | 5810 | 5 | 10.9 | 4.8 | 6 | 6 | 37.3 |  |
| Cc1ccc(Oc2cc(COP(=O)(N3CC3)N3CC3)ccc2[N+](=O)[O-])cn1 [Compound 2890] | 6 | 613 | 2730 | 5 | 5.49 | 6.3 | 10 | 10 | 58.4 |  |
| CS(=O)(=O)c1ccc(Oc2cc(COP(=O)(N3CC3)N3CC3)ccc2[N+](=O)[O-])cc1 [Compound 2911] | 8 |  |  |  |  |  |  |  |  | Max. BW loss % ([1]; 10 mg/kg IP QD × 5/wk × 2 wks): 11.1%; Lethal Tox ([1]; 10 mg/kg IP QD × 5/wk × 2 wks, 10 animals per group): 0; TGD 500 (A549 NSCLC xenograft; 10 mg/kg IP QD × 5/wk × 2 wks): 63 days; TGI (A549 NSCLC xenograft; 10 mg/kg IP QD × 5/wk × 2 wks): 88.7% |
